Values of other authors as cited in paper PMC11860437, “Gold Nanoparticles as a Platform for Delivery of Immunogenic Peptides to THP-1 Derived Macrophages: Insights into Nanotoxicity” (Vaccines, 2025).

How the values were obtained:
HeLa, A549, and CHO = settings: three cell lines (HeLa, A549, and CHO)
Description: (§1) The cytotoxicity of p-Au68 was particularly high when conjugated with peptides p2 (~30–50% cell death) and p4 (~40–60% cell death). […] These peptides differ from each other by the presence of the arginine-rich TAT peptide (YGRKKRRQRRR). It is noteworthy that pTAT-functionalized NPs are considered a promising approach to overcome ...

[1] = tested on: K562 human erythroleukemia cells
Description: as §1

Sequence: YGRKKRRQRRR [pTAT]
- toxicity (HeLa, A549, and CHO): low toxicity
- membrane toxicity [1]: completely innocuous
